Test results: ChEMBL document CHEMBL1131916, “Novel series of O-substituted 8-quinolines and 4-benzothiazoles as potent antagonists of the bradykinin B2 receptors” (Bioorg Med Chem Lett, 1999)
pEC50, pIC50, pKi: −log10 of the molar value.

Tests used:
[1] = molecular target: T1, B2 bradykinin receptor (Cavia porcellus, UniProt O70526); assay: Inhibition of BK-induced (4x10E-8M) contraction of isolated guinea pig ileum (GPI); format: functional, tissue-based
T1 sequence (O70526 whole entry): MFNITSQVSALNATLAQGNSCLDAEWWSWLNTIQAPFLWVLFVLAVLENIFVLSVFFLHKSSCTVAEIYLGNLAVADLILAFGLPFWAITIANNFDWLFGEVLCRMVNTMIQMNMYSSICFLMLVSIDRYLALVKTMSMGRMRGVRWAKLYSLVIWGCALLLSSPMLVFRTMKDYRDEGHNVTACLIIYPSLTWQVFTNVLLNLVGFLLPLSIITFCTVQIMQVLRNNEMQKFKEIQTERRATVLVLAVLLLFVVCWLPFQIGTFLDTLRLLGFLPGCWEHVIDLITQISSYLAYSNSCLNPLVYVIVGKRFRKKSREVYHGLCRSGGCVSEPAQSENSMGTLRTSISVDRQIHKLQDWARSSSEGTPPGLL

[2] = molecular target: T1, B2 bradykinin receptor; assay: Inhibition of specific binding of [3H]BK to bradykinin B2 receptors of guinea pig ileum (GPI); format: tissue-based
[3] = test system: B2 bradykinin receptor, Oryctolagus cuniculus; assay: % Inhibition of BK-induced (4x10E-8M) contraction of rabbit jugular vein (RJV) at 10E-5 M concentration
[4] = species on record: Oryctolagus cuniculus; assay: Compound was tested for the efficacy in the inhibition of BK-induced (4x10E-8M) contraction of rabbit jugular vein (RJV); format: functional
[5] = species on record: Oryctolagus cuniculus; assay: Compound was tested for the percent inhibition of BK-induced (4x10E-8M) contraction of rabbit jugular vein (RJV) at 10E-6 M concentration; format: functional

Row | pEC50 [1] | pIC50 [2] | inhibition [3] [%] | pKi [2] | pEC50 [4] | Compound | Inhibition [5] [%]
1 | 6.35 | 7.27 | 59 | – | – | CCNC(=O)NCC(=O)N(C)c1ccc(OC)c(COc2cccc3ccc(C)nc23)c1C#N | –
2 | 7.25 | 8.92 | 82 | 9.52 | – | Cc1ccc2cccc(OCc3c(Cl)ccc(N(C)C(=O)CNC(=O)/C=C/c4ccc(C(F)(F)F)cc4)c3C#N)c2n1 | –
3 | 6.59 | 7.58 | – | 8.51 | 5.28 | C=C/C=C/C(=O)NCC(=O)N(C)c1ccc(Cl)c(COc2cccc3sc(C)nc23)c1Cl | –
4 | – | 7.53 | – | 8.47 | – | Cc1nc2c(OCc3c(Cl)ccc(N(C)C(=O)CNC(=O)/C=C/c4ccco4)c3Cl)cccc2s1 | –
5 | 6.32 | 7.33 | 55 | – | – | COC(=O)CCCCC(=O)NCC(=O)N(C)c1ccc(OC)c(COc2cccc3ccc(C)nc23)c1SC | –
6 | 6.18 | 7.24 | – | 8.20 | 5.06 | COc1ccc(/C=C/C(=O)NCC(=O)N(C)c2ccc(SC)c(COc3cccc4ccc(C)nc34)c2SC)cc1 | –
7 | 7.27 | 7.99 | – | 8.89 | 6.74 | COc1cccc(/C=C/C(=O)NCC(=O)N(C)c2ccc(Cl)c(COc3cccc4sc(C)nc34)c2Cl)c1 | –
8 | – | 7.09 | 68 | 8.04 | – | COc1ccc(N(C)C(=O)CNC(=O)/C=C/c2cccc(C)c2)c(OC)c1COc1cccc2ccc(C)nc12 | –
9 | 6.46 | 9.05 | – | – | – | Cc1ccc2cccc(OCc3c(Cl)ccc(N(C)C(=O)CNC(=O)NCCCCN)c3C#N)c2n1 | –
10 | 7.26 | 7.66 | – | 8.60 | 7.55 | COc1c(N(C)C(=O)CNC(=O)/C=C/c2ccc(C(F)(F)F)cc2)ccc(Cl)c1COc1cccc2ccc(C)nc12 | –
11 | – | 7.11 | – | 8.04 | – | Cc1nc2c(OCc3c(Cl)ccc(N(C)C(=O)CNC(=O)OCc4ccccc4)c3Cl)cccc2s1 | –
12 | 4.70 | 4.96 | 15 | 5.89 | – | Cc1ccc(/C=C/C(=O)NCC(=O)N(C)c2ccc(Cl)c(COc3cccc4sc(-c5ccccc5)nc34)c2Cl)cc1 | –
13 | 7.64 | 7.85 | – | 8.74 | 7.18 | Cc1ccc(/C=C/C(=O)NCC(=O)N(C)c2ccc(Cl)c(COc3cccc4sc(C)nc34)c2Cl)cc1 | –
14 | 5.89 | 5.87 | 17 | 6.80 | – | Cc1ccc(/C=C/C(=O)NCC(=O)N(C)c2ccc(Cl)c(COc3cccc4scnc34)c2Cl)cc1 | –
15 | 8.39 | 9.15 | 78 | 10.00 | – | COc1cccc(/C=C/C(=O)NCC(=O)N(C)c2ccc(Cl)c(COc3cccc4ccc(C)nc34)c2C#N)c1 | –
16 | 5.96 | 6.41 | – | 7.34 | – | COc1c(N(C)C(=O)CNC(=O)/C=C/c2ccc(C(F)(F)F)cc2)ccc(SC)c1COc1cccc2ccc(C)nc12 | 41
17 | 7.23 | 8.28 | 95 | 9.22 | – | COc1ccc(N(C)C(=O)CNC(=O)/C=C/c2ccc(NC(C)=O)nc2)c(SC)c1COc1cccc2ccc(C)nc12 | –
18 | 6.54 | 7.19 | – | – | – | CCNC(=O)NCC(=O)N(C)c1ccc(Cl)c(COc2cccc3ccc(C)nc23)c1C#N | –
19 | 6.66 | 7.48 | 82 | 8.41 | – | CCCOc1c(N(C)C(=O)CNC(=O)/C=C/c2ccc(C(F)(F)F)cc2)ccc(OC)c1COc1cccc2ccc(C)nc12 | –
20 | 6.40 | 7.59 | – | 8.54 | – | Cc1ccc2cccc(OCc3c(Cl)ccc(N(C)C(=O)CNC(=O)NCCCC(=O)O)c3C#N)c2n1 | –
21 | 7.00 | 7.64 | – | 8.55 | 7.12 | Cc1nc2c(OCc3c(Cl)ccc(N(C)C(=O)CNC(=O)/C=C/c4ccc(C(F)(F)F)cc4)c3Cl)cccc2s1 | –
22 | 6.89 | 7.94 | – | 8.89 | 6.59 | COc1ccc(N(C)C(=O)CNC(=O)/C=C/c2ccc(C(F)(F)F)cc2)c(Cl)c1COc1cccc2ccc(C)nc12 | –
23 | – | 7.93 | 81 | 8.89 | – | Cc1ccc2cccc(OCc3c(C)ccc(N(C)C(=O)CNC(=O)/C=C/c4ccc(C(F)(F)F)cc4)c3C)c2n1 | –
